In patent US8921406B2, “5-ring heteroaromatic compounds and their use as binding partners for 5-HT5 receptors” (AbbVie Deutschland GmbH & Co. KG, priority 2005, dated 2014):
Where a name gives a salt, the structure may show the parent alone.

Target: T1, h5-HT5A receptor (Homo sapiens, UniProt P47898)
T1 construct: expressed in transfected cells
Test: h5-HT5A-[3H]5-CT binding assay
Conditions: membranes of HEK293 cells expressing h5-HT5A; 2.5 nM [3H]5-CT; read-out: Binding affinity 5-HT5A (Ki)
Protocol: 1. h5-HT5A-[^3H]5-CT Binding Assay
Membranes of HEK293 cells which permanently express the h5-HT5A receptor gene were incubated in 100 mM tris-HCl buffer (pH 7.7) containing 1 mM EDTA, in the presence of 2.5 nM [^3H]5-CT (total volume 600 μL). The total binding is defined as the binding that is observed when the membranes are incubated in the presence of only the radioligand. The inhibition induced by the compound is determined by incubation of cell membranes in the presence of the radioligand and various concentrations of the compound of interest. Nonspecific binding is defined as the [^3H]5-CT binding obtained by incubation of the membranes, the same as for the total binding, but in the presence of 10 μM methiothepine. Following incubation for 75 min at 30° C., the membrane suspension was filtered through a GF/B-Filter coated with 0.03% PEI, using a Skatron® harvesting system. The residual radioactivity in the filter was quantified by liquid scintillation counting.
Various concentrations of the test substances were used in both assays, and the Ki or IC50 values were determined.

T1 sequence (P47898 whole entry): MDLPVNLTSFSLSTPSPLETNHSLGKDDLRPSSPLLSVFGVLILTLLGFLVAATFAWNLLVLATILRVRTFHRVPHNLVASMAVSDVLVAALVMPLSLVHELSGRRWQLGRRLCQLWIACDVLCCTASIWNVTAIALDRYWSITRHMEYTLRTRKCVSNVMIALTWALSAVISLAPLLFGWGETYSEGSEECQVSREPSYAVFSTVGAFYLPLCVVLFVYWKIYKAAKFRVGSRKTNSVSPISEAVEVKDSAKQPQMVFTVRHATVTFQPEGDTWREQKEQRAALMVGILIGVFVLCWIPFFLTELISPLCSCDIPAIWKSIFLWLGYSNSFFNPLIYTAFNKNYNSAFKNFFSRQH

Compound	Ki
CCOC(=O)c1cc(-c2cn(Cc3ccccc3OC)c(N)n2)on1 [Example 30, 5-[2-Amino-1-(2-methoxybenzyl)-1H-imidazole-4-yl]isoxazole-3-carboxylic acid ethyl ester]	> 600 nM
COc1ccccc1Cn1cc(-c2cccc3ccccc23)nc1N [Example 43, 1-(2-Methoxybenzyl)-4-naphthalene-1-yl-1H-imidazole-2-ylamine]	< 600 nM
COc1ccccc1Cn1cc(-c2ccc(OC(F)(F)F)cc2)nc1N [Example 22, 1-(2-Methoxybenzyl)-4-(4-trifluoromethoxyphenyl)-1H-imidazole-2-ylamine]	< 600 nM
COc1ccc(-c2nc(Cc3ccccc3OC)c(N)[nH]2)cc1 [Example 62, 5-(2-Methoxybenzyl)-2-(4-methoxyphenyl)-3H-imidazole-4-ylamine hydrochloride]	> 600 nM
COc1ccc(-c2cn(Cc3c(Cl)cccc3OC)c(N)n2)cc1 [Example 32, 1-(2-Chloro-6-methoxybenzyl)-4-(4-methoxyphenyl)-1H-imidazole-2-ylamine]	< 600 nM
COc1cccc(F)c1Cn1cc(-c2ccc(C#N)cc2)nc1N [Example 33, 4-[2-Amino-1-(2-fluoro-6-methoxybenzyl)-1H-imidazole-4-yl]benzonitrile]	< 600 nM
COc1ccccc1Cn1cc(-c2cccc(NS(=O)(=O)c3ccc(C(C)C)cc3)c2)nc1N [Example 55, N-{3-[2-Amino-1-(2-methoxybenzyl)-1H-imidazole-4-yl]phenyl}-4-isopropylbenzenesulfonamide]	< 600 nM
COc1ccccc1Cn1cc(-c2ccc(Cl)cc2Cl)nc1N [Example 35, 4-(2,4-Dichlorophenyl)-1-(2-methoxybenzyl)-1H-imidazole-2-ylamine hydrochloride]	< 600 nM
COc1ccccc1Cn1cc(-c2ccc(C)s2)nc1N [Example 38, 1-(2-Methoxybenzyl)-4-(5-methylthiophene-2-yl)-1H-imidazole-2-ylamine]	< 600 nM
COc1cccc(OC)c1Cn1cc(-c2ccc(C#N)cc2)nc1N [Example 25, 4-[2-Amino-1-(2,6-dimethoxybenzyl)-1H-imidazole-4-yl]benzonitrile hydrochloride]	< 600 nM
COc1ccccc1Cc1nc(-c2ccccc2)[nH]c1N [Example 3, 5-(2-Methoxybenzyl)-2-phenyl-3H-imidazole-4-ylamine]	< 600 nM

Now from value to molecule:

Ki	Compound
< 600 nM	COc1cccc(Cl)c1Cn1cc(-c2cccs2)nc1N [Example 37, 1-(2-Chloro-6-methoxybenzyl)-4-thiophene-2-yl-1H-imidazole-2-ylamine]
< 600 nM	COc1ccccc1Cn1c(N)nc(-c2ccccc2)c1C [Example 14, 1-(2-Methoxybenzyl)-5-methyl-4-phenyl-1H-imidazole-2-ylamine]
< 600 nM	COc1ccccc1Cn1cc(-c2csc(-c3ccccc3)n2)nc1N [Example 47, 1-(2-Methoxybenzyl)-4-(2-phenylthiazole-4-yl)-1H-imidazole-2-ylamine]
< 600 nM	COc1ccccc1Cn1cc(-c2ccco2)nc1N [Example 15, 4-Furan-2-yl-1-(2-methoxybenzyl)-1H-imidazole-2-ylamine hydrochloride]
< 600 nM	COc1cccc(F)c1Cn1cc(-c2ccsc2)nc1N [Example 31, 1-(2-Fluoro-6-methoxybenzyl)-4-thiophene-3-yl-1H-imidazole-2-ylamine]
< 600 nM	COc1ccccc1Cn1cc(-c2ccc(F)cc2)nc1N [Example 12, 4-(4-Fluorophenyl)-1-(2-methoxybenzyl)-1H-imidazole-2-ylamine]
< 600 nM	COc1cccc(OC)c1Cn1cc(-c2cc(C)cs2)nc1N [Example 52, 1-(2,6-Dimethoxybenzyl)-4-(4-methylthiophene-2-yl)-1H-imidazole-2-ylamine]
